Laboratory results from patent US9573913B2, “Cathepsin cysteine protease inhibitors” (Merck Sharp & Dohme Corp., priority 2013, dated 2017).

Legend:
human cathepsin K = human cathepsin K (UniProt P43236); assay: Cathepsin K Assay (hrbCat K); type: biochemical; details: Z-Leu-Arg-AMC substrate, pH 5.5, 15 min preincubation; read-out: hrbCat K (IP (nM))
Method in brief: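 Human cathepsin K (0.4 nM) was preincubated 15 min at room temperature with compound in 50 mM MES pH 5.5, 2.5 mM EDTA, 2.5 mM DTT and 10% DMSO. Inhibition was fitted to a dose-response model.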

human cathepsin F = target: T1, human cathepsin F (Homo sapiens, UniProt Q9UBX1); assay: Cathepsin F assay (hCat F); type: biochemical; details: Z-Phe-Arg-AMC substrate, pH 5.5, 15 min preincubation; read-out: hCat F (IP (nM))
T1 sequence (Q9UBX1 271-484): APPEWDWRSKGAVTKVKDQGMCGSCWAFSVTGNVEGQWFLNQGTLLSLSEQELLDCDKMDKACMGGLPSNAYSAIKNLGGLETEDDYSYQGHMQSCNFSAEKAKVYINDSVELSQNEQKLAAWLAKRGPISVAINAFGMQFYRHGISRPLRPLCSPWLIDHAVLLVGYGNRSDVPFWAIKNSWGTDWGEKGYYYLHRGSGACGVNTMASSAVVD
Method in brief: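 Enzyme (10 nM) was preincubated 15 min at room temperature with compounds (1/3 DMSO dilution series, 500–0.025 μM) in 50 mM MES pH 5.5, 2.5 mM EDTA, 2.5 mM DTT, 10% DMSO. Z-Phe-Arg-AMC (8 μM) was added and AMC fluorescence (Ex 360/Em 460 nm) followed for 20 min. % inhibition was fitted to dose-response curves.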

Structure (SMILES)	IC50 (human cathepsin K)	IC50 (human cathepsin F)
CN=S1(=O)CCN(c2ccc(-c3oc(C(C)(C)C)nc3[C@@H]3CC[C@H](F)C[C@H]3C(=O)N[C@H](C#N)C(C)C)cc2)CC1 [Example 174, (1R,2R,5S)-2-(2-(tert-butyl)-5-(4-(1-(methylimino)-1-oxidothiomorpholino)phenyl)oxazol-4-yl)-N-((S)-1-cyano-2-methylpropyl)-5-fluorocyclohexane-carboxamide]	31.3 nM	≥ 10000 nM
N#CC1(NC(=O)[C@@H]2CCCC[C@H]2c2nc(C3(c4ccccc4)CC3)sc2-c2ccc(N3CCS(=O)(=O)CC3)cc2)CC1 [Example 175, (1R,2R)-N-(1-cyanocyclopropyl)-2-(5-(4-(1,1-dioxidothiomorpho-lino)phenyl)-2-(1-phenylcyclopropyl)thiazol-4-yl)cyclohexane-carboxamide]	2.1 nM	1000 nM
N#CC1(NC(=O)[C@@H]2C[C@@H](F)CC[C@H]2c2nc(-c3ccc(F)cc3)sc2-c2ccc(N3CCS(=N)(=O)CC3)cc2)CC1 [Example 176, (1R,2R,5S)-N-(1-cyanocyclopropyl)-5-fluoro-2-(2-(4-fluorophenyl)-5-(4-(1-imino-1-oxidothiomorpholino)phenyl)thiazol-4-yl)cyclohexane-carboxamide]	3.2 nM	3330 nM
CN=S1(=O)CCN(c2ccc(-c3sc(-c4ccc(F)cc4)nc3[C@@H]3CC[C@H](F)C[C@H]3C(=O)NC3(C#N)CC3)cc2)CC1 [Example 177, (1R,2R,5S)-N-(1-cyanocyclopropyl)-5-fluoro-2-(2-(4-fluorophenyl)-5-(4-(1-(methylimino)-1-oxidothiomorpholino)phenyl)thiazol-4-yl)cyclohexane-carboxamide]	3.5 nM	3330 nM
N#CC1(NC(=O)[C@@H]2CCCC[C@H]2c2nc(NC3CCCCC3)sc2-c2ccc(N3CCS(=O)(=O)CC3)cc2)CC1 [Example 178, (1R,2R)-N-(1-cyanocyclopropyl)-2-(2-(cyclohexylamino)-5-(4-(1,1-dioxidothiomorpho-lino)phenyl)thiazol-4-yl)cyclohexane-carboxamide]	41.2 nM	1000 nM
N#CC1(NC(=O)[C@@H]2CCCC[C@H]2c2nc(Nc3ccccc3)sc2-c2ccc(N3CCS(=O)(=O)CC3)cc2)CC1 [Example 179, (1R,2R)-N-(1-cyanocyclopropyl)-2-(5-(4-(1,1-dioxidothiomorpho-lino)phenyl)-2-(phenylamino)thia-zol-4-yl)cyclohexane-carboxamide]	34.6 nM	3740 nM
N#CC1(NC(=O)[C@@H]2CCCC[C@H]2c2nc(Nc3ccc(F)cc3)sc2-c2ccc(N3CCS(=O)(=O)CC3)cc2)CC1 [Example 180, (1R,2R)-N-(1-cyanocyclopropyl)-2-(5-(4-(1,1-dioxidothiomorpho-lino)phenyl)-2-((4-fluorophenyl)amino)thiazol-4-yl)cyclohexane-carboxamide]	43.3 nM	1000 nM
N#CC1(NC(=O)[C@@H]2CCCC[C@H]2c2nc(Nc3ccc(F)cc3F)sc2-c2ccc(N3CCS(=O)(=O)CC3)cc2)CC1 [Example 181, (1R,2R)-N-(1-cyanocyclopropyl)-2-(2-((2,4-difluorophenyl)amino)-5-(4-(1,1-dioxidothiomorpho-lino)phenyl)thiazol-4-yl)cyclohexane-carboxamide]	31.9 nM	3490 nM
N#CN=S1(=O)CCN(c2ccc(-c3sc(-c4ccc(F)cc4)nc3[C@@H]3CCCC[C@H]3C(=O)NC3(C#N)CC3)cc2)CC1 [Example 182, (1R,2R)-N-(1-cyanocyclopropyl)-2-(5-(4-(1-(cyanoimino)-1-oxidothiomorpholino)phenyl)-2-(4-fluorophenyl)thiazol-4-yl)cyclohexane-carboxamide]	2.72 nM	3330 nM
N#CC1(NC(=O)[C@@H]2CCCC[C@H]2c2nc(C(F)(F)c3ccccc3)sc2-c2ccc(N3CCS(=O)(=O)CC3)cc2)CC1 [Example 183, (1R,2R)-N-(1-cyanocyclopropyl)-2-(2-(difluoro(phenyl)methyl)-5-(4-(1,1-dioxidothiomorpho-lino)phenyl)thiazol-4-yl)cyclohexane-carboxamide]	5.7 nM	810 nM
N#CC1(NC(=O)[C@@H]2CCCC[C@H]2c2nc(C3(c4ccc(F)cc4)CC3)sc2-c2ccc(N3CCS(=O)(=O)CC3)cc2)CC1 [Example 184, (1R,2R)-N-(1-cyanocyclopropyl)-2-(5-(4-(1,1-dioxidothiomorpho-lino)phenyl)-2-(1-(4-fluorophenyl)cyclo-propyl)thiazol-4-yl)cyclohexane-carboxamide]	5.2 nM	1580 nM
N#CC1(NC(=O)[C@@H]2CCCC[C@H]2c2nc(Oc3ccc(F)cc3)sc2-c2ccc(N3CCS(=O)(=O)CC3)cc2)CC1 [Example 189, (1R,2R)-N-(1-cyanocyclopropyl)-2-(5-(4-(1,1-dioxidothiomorpho-lino)phenyl)-2-(4-fluorophenoxy)thia-zol-4-yl)cyclohexane-carboxamide]	5.1 nM	788 nM
N#CC1(NC(=O)[C@@H]2CCCC[C@H]2c2nc(N)sc2-c2ccc(N3CCS(=O)(=O)CC3)cc2)CC1 [Example 190, (1R,2R)-2-(2-amino-5-(4-(1,1-dioxidothiomorpho-lino)phenyl)thiazol-4-yl)-N-(1-cyanocyclopropyl) cyclohexanecarbox-amide]	13.2 nM	7410 nM
Cc1ccc(-c2nc([C@@H]3CC[C@H](F)C[C@H]3C(=O)N[C@@H](C)C#N)c(-c3ccc(N4CCS(=O)(=O)CC4)cc3)s2)nn1 [Example 195, (1R,2R,5S)-N-((S)-1-cyanoethyl)-2-(5-(4-(1,1-dioxidothiomorpho-lino)phenyl)-2-(6-methylpyridazin-3-yl)thiazol-4-yl)-5-fluorocyclohexane-carboxamide]	1.4 nM	1940 nM
Cc1ccc(-c2nc([C@@H]3CC[C@H](F)C[C@H]3C(=O)NC3(C#N)CC3)c(-c3ccc(N4CCS(=O)(=O)CC4)cc3)s2)nn1 [Example 196, (1R,2R,5S)-N-(1-cyanocyclopropyl)-2-(5-(4-(1,1-dioxidothiomorpho-lino)phenyl)-2-(6-methylpyridazin-3-yl)thiazol-4-yl)-5-fluorocyclohexane-carboxamide]	2.4 nM	2020 nM
N#CC1(NC(=O)[C@@H]2C[C@@H](F)CC[C@H]2c2nc(-c3ccc(C(F)(F)F)nn3)sc2-c2ccc(N3CCS(=O)(=O)CC3)cc2)CC1 [Example 197, (1R,2R,5S)-N-(1-cyanocyclopropyl)-2-(5-(4-(1,1-dioxidothiomorpho-lino)phenyl)-2-(6-(trifluoromethyl)pyridazin-3-yl)thiazol-4-yl)-5-fluorocyclohexane-carboxamide]	512 nM	≥ 10000 nM
N#CC1(NC(=O)[C@@H]2CCCC[C@H]2c2nc(Oc3ccc(F)cc3F)sc2-c2ccc(N3CCS(=O)(=O)CC3)cc2)CC1 [Example 198, (1R,2R)-N-(1-cyanocyclopropyl)-2-(2-(2,4-difluorophenoxy)-5-(4-(1,1-dioxidothiomorpho-lino)phenyl)thiazol-4-yl)cyclohexane-carboxamide]	4.2 nM	1020 nM
CC(C)S(=O)(=O)c1ccc(-c2sc(-c3cncc(F)c3)nc2[C@@H]2CCCC[C@H]2C(=O)NC2(C#N)CC2)cc1 [Example 199, (1R,2R)-N-(1-cyanocyclopropyl)-2-(2-(5-fluoropyridin-3-yl)-5-(4-(isopropylsulfonyl)phenyl)thiazol-4-yl)cyclohexane-carboxamide]	25.8 nM	846 nM
